Measurements taken from the NIST ThermoML archive (doi:10.1021/je100715x).

What was measured:
[1] = refractive index (Na D-line) (dimensionless); xn = mol fraction of the nth substance listed; settings: 101 kPa, Liquid, Standard Abbe refractometry
[2] = xn = mol fraction of the nth substance listed; settings: 101 kPa, Liquid; for viscosity: Capillary tube (Ostwald / Ubbelohde) method; for mass density: Vibrating tube method

CCOC(=O)C(=O)OCC [diethyl ethanedioate] + CC(=O)c1ccccc1
Settings	mass density, 303.15 K [kg/m3]	mass density, 308.15 K [kg/m3]	mass density, 313.15 K [kg/m3]	refractive index, 303.15 K	refractive index, 308.15 K	refractive index, 313.15 K	viscosity, 303.15 K [mPa·s]	viscosity, 308.15 K [mPa·s]	viscosity, 313.15 K [mPa·s]
[1], x1 = 0.0875	–	–	–	1.5171	1.5151	1.5133	–	–	–
[1], x1 = 0.1478	–	–	–	1.5087	1.5068	1.5053	–	–	–
[1], x1 = 0.2538	–	–	–	1.4945	1.4928	1.4912	–	–	–
[1], x1 = 0.3443	–	–	–	1.4826	1.4811	1.4796	–	–	–
[1], x1 = 0.4591	–	–	–	1.4685	1.4671	1.4656	–	–	–
[1], x1 = 0.5501	–	–	–	1.4574	1.456	1.4544	–	–	–
[1], x1 = 0.6601	–	–	–	1.4439	1.4424	1.4411	–	–	–
[1], x1 = 0.7601	–	–	–	1.4325	1.4309	1.4293	–	–	–
[1], x1 = 0.8846	–	–	–	1.4187	1.4167	1.4154	–	–	–
[1], x1 = 0.95	–	–	–	1.4117	1.4095	1.4079	–	–	–
[2], x1 = 0.0875	1024.1	1021	1017.4	–	–	–	1.557	1.405	1.308
[2], x1 = 0.1478	1026.7	1023.6	1019.9	–	–	–	1.578	1.418	1.317
[2], x1 = 0.2538	1031.2	1027.9	1024	–	–	–	1.61	1.439	1.333
[2], x1 = 0.3443	1034.9	1031.5	1027.5	–	–	–	1.628	1.454	1.344
[2], x1 = 0.4591	1039.9	1036.2	1032	–	–	–	1.645	1.467	1.355
[2], x1 = 0.5501	1044	1040.1	1035.7	–	–	–	1.655	1.477	1.362
[2], x1 = 0.6601	1049.3	1045.2	1040.2	–	–	–	1.657	1.485	1.366
[2], x1 = 0.7601	1054.3	1049.8	1044.5	–	–	–	1.654	1.487	1.37
[2], x1 = 0.8846	1060.6	1055.6	1049.9	–	–	–	1.648	1.489	1.373
[2], x1 = 0.95	1063.8	1058.5	1052.5	–	–	–	1.635	1.49	1.375

CCOC(=O)C(=O)OCC [diethyl ethanedioate] + CCC(=O)CC
Settings	mass density, 303.15 K [kg/m3]	mass density, 308.15 K [kg/m3]	mass density, 313.15 K [kg/m3]	refractive index, 303.15 K	refractive index, 308.15 K	refractive index, 313.15 K	viscosity, 303.15 K [mPa·s]	viscosity, 308.15 K [mPa·s]	viscosity, 313.15 K [mPa·s]
[1], x1 = 0.0865	–	–	–	1.3901	1.3881	1.3861	–	–	–
[1], x1 = 0.1436	–	–	–	1.3916	1.3897	1.3877	–	–	–
[1], x1 = 0.2448	–	–	–	1.3941	1.3924	1.3906	–	–	–
[1], x1 = 0.3389	–	–	–	1.3962	1.3947	1.393	–	–	–
[1], x1 = 0.4495	–	–	–	1.3984	1.3969	1.3954	–	–	–
[1], x1 = 0.5325	–	–	–	1.3999	1.3983	1.3969	–	–	–
[1], x1 = 0.6518	–	–	–	1.4018	1.4	1.3986	–	–	–
[1], x1 = 0.7587	–	–	–	1.4033	1.4014	1.3998	–	–	–
[1], x1 = 0.8659	–	–	–	1.4047	1.4026	1.4008	–	–	–
[1], x1 = 0.9438	–	–	–	1.4056	1.4034	1.4015	–	–	–
[2], x1 = 0.0865	834	829.9	825.8	–	–	–	0.485	0.452	0.44
[2], x1 = 0.1436	852	847.8	843.6	–	–	–	0.527	0.491	0.478
[2], x1 = 0.2448	882.5	878.2	873.8	–	–	–	0.61	0.567	0.551
[2], x1 = 0.3389	909.4	905	900.5	–	–	–	0.701	0.65	0.627
[2], x1 = 0.4495	939.4	934.8	930.1	–	–	–	0.818	0.759	0.726
[2], x1 = 0.5325	960.8	956.1	951.2	–	–	–	0.916	0.848	0.808
[2], x1 = 0.6518	990	985.1	979.9	–	–	–	1.071	0.987	0.936
[2], x1 = 0.7587	1014.7	1009.6	1004.2	–	–	–	1.224	1.121	1.061
[2], x1 = 0.8659	1038.2	1032.9	1027.2	–	–	–	1.395	1.274	1.196
[2], x1 = 0.9438	1054.6	1049.1	1043.3	–	–	–	1.525	1.391	1.295

CCOC(=O)C(=O)OCC [diethyl ethanedioate] + O=C1CCCC1
Settings	mass density, 303.15 K [kg/m3]	mass density, 308.15 K [kg/m3]	mass density, 313.15 K [kg/m3]	refractive index, 303.15 K	refractive index, 308.15 K	refractive index, 313.15 K	viscosity, 303.15 K [mPa·s]	viscosity, 308.15 K [mPa·s]	viscosity, 313.15 K [mPa·s]
[1], x1 = 0.0679	–	–	–	1.4299	1.4278	1.4262	–	–	–
[1], x1 = 0.1501	–	–	–	1.4264	1.4244	1.4231	–	–	–
[1], x1 = 0.2518	–	–	–	1.4226	1.4207	1.4198	–	–	–
[1], x1 = 0.3903	–	–	–	1.4182	1.4164	1.4158	–	–	–
[1], x1 = 0.4511	–	–	–	1.4164	1.4147	1.4142	–	–	–
[1], x1 = 0.5509	–	–	–	1.4139	1.4122	1.4116	–	–	–
[1], x1 = 0.6587	–	–	–	1.4115	1.4098	1.4089	–	–	–
[1], x1 = 0.7587	–	–	–	1.4098	1.4079	1.4067	–	–	–
[1], x1 = 0.8755	–	–	–	1.408	1.4059	1.4043	–	–	–
[1], x1 = 0.961	–	–	–	1.4068	1.4045	1.4027	–	–	–
[2], x1 = 0.0679	950.9	946.1	941.1	–	–	–	1.045	0.96	0.891
[2], x1 = 0.1501	965	960.1	954.9	–	–	–	1.095	0.999	0.925
[2], x1 = 0.2518	981	976	970.6	–	–	–	1.153	1.048	0.968
[2], x1 = 0.3903	1000.6	995.4	989.9	–	–	–	1.233	1.119	1.031
[2], x1 = 0.4511	1008.5	1003.2	997.7	–	–	–	1.265	1.152	1.058
[2], x1 = 0.5509	1020.7	1015.3	1009.7	–	–	–	1.326	1.207	1.107
[2], x1 = 0.6587	1032.9	1027.4	1021.7	–	–	–	1.394	1.269	1.163
[2], x1 = 0.7587	1043.4	1037.9	1032.1	–	–	–	1.458	1.329	1.219
[2], x1 = 0.8755	1054.9	1049.3	1043.3	–	–	–	1.537	1.401	1.288
[2], x1 = 0.961	1062.7	1057	1051	–	–	–	1.596	1.454	1.342
